Assays:
GPR10 [1] = target: T1, GPR10 (Homo sapiens, UniProt P49683); conditions: cells transfected with GPR10; cited from earlier work
T1 sequence (P49683 1-370): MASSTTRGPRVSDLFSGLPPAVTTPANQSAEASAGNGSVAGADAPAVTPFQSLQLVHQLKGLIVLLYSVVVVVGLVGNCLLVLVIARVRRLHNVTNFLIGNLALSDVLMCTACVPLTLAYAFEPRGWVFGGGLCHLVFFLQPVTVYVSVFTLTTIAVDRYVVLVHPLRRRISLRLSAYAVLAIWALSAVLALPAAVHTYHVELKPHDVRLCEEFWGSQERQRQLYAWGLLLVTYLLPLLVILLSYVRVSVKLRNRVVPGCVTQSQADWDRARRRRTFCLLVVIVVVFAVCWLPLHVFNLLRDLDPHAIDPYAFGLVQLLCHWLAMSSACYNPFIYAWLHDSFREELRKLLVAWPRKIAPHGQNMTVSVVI

GPR10 [2] = target: T1, GPR10; conditions: read-out: apparent affinity for GPR10; cited from earlier work
[3] = tested on: rat anterior pituitary cells; conditions: rat anterior pituitary cells in vitro; cited from earlier work
[4] = tested on: AMPA receptor-mediated thalamic oscillatory activity; assay: AMPA receptor-driven oscillatory activity, extracellular recording from RTN in thalamic slices; parameters: species or system Sprague-Dawley rats
Experimental: (§1) Horizontal thalamic slices (400 μm) were prepared from Sprague-Dawley rats (postnatal rats 13-15) using a vibratome (Leica, VTlOOOS). The slices were transferred to a recording chamber after at least 1 hr recovery, and were superfused with artificial cerebrospinal fluid (aCSF) equilibrated with 95% 02/5% CO2 at 0.5 ml/mm. The aCSF contained (in mM): NaCl 126, KCl2.5, NaH2PO4 1.25, CaCl2 2, MgSO4 0.63, NaHCO3 26, and glucose 10. All experiments were carried out in the presence of 10 μM bicuculline maleate and cytochrome c (100 μg/ml) at 34° C. A glass electrode filled with 2 M NaCl was positioned in the nucleus of reticular thalamus (RTN), and extracellular recording was made in response to stimulation of the internal capsule (1-50 μA) every 20-30 sec. After establishing stable oscillatory activity, PrRP was applied for 15-20 min. Paired Student's t-Test was used for statistical analysis. The data were digitized at 1-5 kHz with the Neuronal Activity Acquisition Program (Eclectek Enterprise).
The bar on the left indicates the duration of peptide application. The traces at the bottom show representative responses before and in the presence of PrRP, taken at the time points indicated with arrow heads. […]

PrRP receptor = target: T2, PrRP receptor (Homo sapiens, UniProt P49683); conditions: mammalian cells recombinantly expressing PrRP receptor; cited from earlier work
T2 construct: expressed in transfected cells
T2 sequence (P49683 1-370): T1 sequence (P49683 1-370)

[5] = tested on: sleeping Sprague-Dawley rats; assay: EEG/EMG sleep/wake recording in sleeping rats after i.c.v. infusion; type: in vivo, rat
Experimental: To determine if PrRP modulates sleep/wake or arousal states, varying doses of PrRP were injected i.c.v. into sleeping rats. EEG and EMG were recorded for 150 min in three groups, each consisting of 6 rats, that received either vehicle, 1 nmol PrRP, or 10 nmol PrRP. Analyses were conducted across five consecutive 30-min epochs; vehicle or PrRP were injected at the end of the second epoch. Vehicle-treated rats spent a substantial portion of the entire testing period asleep with characteristic EEG/EMG recordings. EEG and EMG recordings were made from Male Sprague-Dawley rats (300-400 g, Sasco, Oregon, Wis.) according to the method described previously (Berridge et al., J. Neurosci., 16:6999-7009 (1996)).
Rats were housed in pairs for at least 7-days prior to surgery with ad lib access to food and water on an 11:13 hour light:dark cycle (lights on 7:00 a.m.). Approximately 5 μl of vehicle or PrRP31 dissolved in vehicle ([…]) was infused intracerebroventricularly through a pre-implanted cannula (Berridge et al., supra (1996)). Artificial extracellular fluid (147 mM NaCl, 1.3 mM CaCl2, 0.9 mM MgCl2, 2.5 mM KCl, 5.0 mM NaH2PO4; pH 7.4) plus 200 μg/ml cytochrome c served as vehicle. Infusions were made over a 2-min period using a microprocessor-controlled infusion pump (Harvard Apparatus, South Natick, Mass.). Cortical EEG (ECoG) from the frontal cortex and EMG from the dorsal neck muscles were recorded for 60 min prior to infusion and 90 min following infusion. To be scored as a distinct epoch, the appropriate ECoG and EMG activity patterns needed to persist for a minimum of 15 sec. Time spent in each state was scored and totaled for the five 30 min epochs of the observation period, two during the preinfusion period and three during the post-infusion period. The location of the infusion needle was verified morphologically after each experiment. Data were only used for analysis when EEG recordings were electrically adequate and infusion needle placement was accurate. Statistical analysis was performed using a two-way mixed-design ANOVA with drug treatment as the between-subjects variable and time as the within-subjects variable. Post-hoc analyses were conducted using Tukey's HSD test.
FIGS. 7B and 7C show the effects of varying concentrations of PrRP infused into the lateral ventricle on total time spent awake (FIG. 7B) and slow-wave slept (FIG. 7C). Symbols represent mean±SEM of the time (sec) spent in the two different behavioral state categories of six animals per 30-min epoch. PRE1 and PRE2 represent pre-infusion epochs. POST1-POST3 represent post-infusion epochs. Vehicle-treated rats spent a substantial proportion of the testing period asleep.

[6] = tested on: GAERS (Genetic Absence Epilepsy Rats from Strasbourg); assay: absence seizure activity (spike and wave discharges, EEG) in GAERS after ICV injection; type: in vivo, rat
Experimental: Electroencephalogram (EEG) recordings and intracerebroventricular (ICV) injection into GAERS were performed essentially as described in Liu et al., Brain Res. 545:1-7 (1991). Briefly, six male GAERS (300-400 g) were implanted stereotaxically (AP=−0.8, ML=1.2, CV=3 mm, with bregma as reference) with a permanent stainless steel cannula under pentobarbital anesthesia (40 mg/kg i.p.). All rats were also implanted bilaterally with 4 stainless-steel electrodes at the frontal and parietal cortex and connected to a microconnector. Both the guide cannulae and EEG electrodes were anchored to the skull using retaining screws and dental acrylic cement.
After one week of recovery, stainless steel injection cannulae were introduced into the guide cannulae so as to extend 2-4 mm beyond their tips. Injection cannulae were connected to a 10 μl microsyringe driven by a pump. Five microliters saline or peptides at various concentrations were microinjected over 1 min through the cannulae while taking EEG recordings continuously throughout the duration of the experiment, in freely moving animals. During EEG recordings the rats were carefully watched and were prevented from falling asleep by gentle sensory stimulation. Seizure frequency was determined as a cumulative duration of spike and wave discharges per consecutive 20 minute periods (seconds of seizure activity per 20 minute recording) after the initial injection. Statistical analysis was performed using the Wilcoxon test.
PrRP was administered intracerebroventricularly into GAERS rats. EEG was taken throughout the course of the experiment and time spent in seizures (spike and wave discharges (SWD) duration) was tabulated for 20 minute intervals from the initial infusion of either aCSF control or various peptide concentrations. Data from six animals receiving the same treatment were pooled. In comparison to aCSF control, PrRP was able to dose-dependently suppress seizure activity in this animal model (FIGS. 5A-5D). […] This seizure suppressing activity remained significant 60 to 80 minutes after peptide injection.
The chart calibration was 200 microV/1 sec.

[7] = tested on: NMDA receptor-mediated thalamic oscillatory activity; assay: NMDA receptor-driven oscillatory activity in thalamic slices (low Mg2+ aCSF with CNQX); parameters: species or system Sprague-Dawley rats; conditions: 10 μM; low Mg2+ (0.1 mM) aCSF with 10 μM CNQX; n=4
Experimental: as §1
It was next investigated whether the suppression of RTN oscillatory activity by PrRP is the consequence of AMPA receptor modulation or some general cellular effect. […] The above experiment was thus repeated in a low Mg^2+ (0.1 mM)-aCSF containing 10 μM of the AMPA receptor antagonist CNQX.

Question: Which calcium mobilization (GPR10 [1]) does the source give for IRPVGRF [PrRP(25-31)] here?
Answer: mobilizes calcium

Question: What about the Kd (GPR10 [2]) of the same substance?
Answer: 200 nM

Question: Which results are given for “SRAHQHSMEIRTPDINPAWYAGRGIRPVGRF [PrRP-31]”?
Answer: prolactin-releasing activity [3]: having prolactin-releasing activity; Kd (GPR10 [2]): ~1 nM

Question: What does the source list for Prolactin Releasing Peptide [PrRP]?
Answer: maximum suppression of number of oscillations ([4]; 10 μM, with DL-APV, bicuculline): approximately 40%; inhibition of number of oscillations ([4]; 20 μM, compared with 10 μM): comparable degree of inhibition; arachidonic acid metabolite release (PrRP receptor): leads to activation of arachidonic acid metabolite release; calcium mobilization (GPR10 [1]): leads to calcium mobilization; total time spent awake ([5]; 1 nmol i.c.v., post-infusion epochs): only a trend; conversion to the awake state ([5]; 10 nmol i.c.v.): nearly complete; duration of awake state ([5]; 10 nmol i.c.v.): lasted for well over an hour; slow-wave sleep ([5]; 10 nmol i.c.v.): near-complete suppression; total time spent awake ([5]; 10 nmol i.c.v., post-infusion epochs (POST1, POST2)): significantly increased; onset of normal waking EEG/EMG patterns ([5]; injected during sleep phase): within minutes; SWD duration, recovery ([6]; 10 nmol ICV, after 40 minutes): returned to baseline; SWD duration ([6]; 10 nmol ICV, first 20 minutes): reduced by half; reduction of seizure activity ([6]; 50 nmol ICV): 75%; reduction of seizure activity ([6]; 100 nmol ICV, at 20 minutes): ~100%; other mobility or behavioral changes ([6]; all peptide concentrations (10-100 nmol ICV)): No other mobility or behavioral changes were observed; effect on NMDA receptor-driven oscillation [7]: no discernible effect

Question: With TPDINPAWYAGRGIRPVGRF [PrRP-20] as the substance, how does the prolactin-releasing activity [3] read?
Answer: having prolactin-releasing activity

Question: And the Kd (GPR10 [2])?
Answer: ~1 nM

Reference: US6884596B2, “Screening and therapeutic methods for promoting wakefulness and sleep” (The Regents of the University of California, priority 2000, dated 2005)
